Assay results from patent US20180135134A1, “TARGETED SELECTION OF PATIENTS FOR TREATMENT WITH CORTISTATIN DERIVATIVES” (President and Fellows of Harvard College, priority 2015, published 2018).

Assays:
HCT116 = experiment: Cellular proliferation assay (CellTiter-Blue, day 7); settings: Homo sapiens, HCT-116
Method: (§1) All suspension cells were plated (96-well) in triplicate at 5,000-30,000 cells per well for testing (n=3). Viable cell number was estimated after 3, 7 and 10 days by counting viable cells from one vehicle well, generating a cell dilution series, transferring 20 ml per well in duplicate to a 384-well plate, and performing a linear regression to CellTiter-Glo (Promega) response (SPECTRAmax M3, Molecular Devices). Cells from all wells were also fourfold diluted in media and transferred in duplicate for CellTiter-Glo measurement. On days 3 and 7, an equal volume for all wells was split-back with fresh media and compound, such that the resulting cell density for the vehicle well matched the initial seeding density. For days 7 and 10, estimated cell number represents the split-adjusted theoretical cell number. HCT116 were plated (96-well) in triplicate at 250 cells per well. Cells were incubated in the presence of vehicle, 1 μM paclitaxel, or compound. On day 7, CellTiter-Blue (Promega) response was measured and values were normalized to vehicle (100% growth) and paclitaxel (0% growth). For growth assays with inhibitors, n=3 for each concentration with two independent experiments.

MKPL-1 = experiment: Cellular proliferation assay (CellTiter-Glo); settings: Homo sapiens, 240 h
Method: (§2) All suspension cells were plated (96-well) in triplicate at 5,000-30,000 cells per well for testing (n=3). Viable cell number was estimated after 3, 7 and 10 days by counting viable cells from one vehicle well, generating a cell dilution series, transferring 20 ml per well in duplicate to a 384-well plate, and performing a linear regression to CellTiter-Glo (Promega) response (SPECTRAmax M3, Molecular Devices). Cells from all wells were also fourfold diluted in media and transferred in duplicate for CellTiter-Glo measurement. On days 3 and 7, an equal volume for all wells was split-back with fresh media and compound, such that the resulting cell density for the vehicle well matched the initial seeding density. For days 7 and 10, estimated cell number represents the split-adjusted theoretical cell number. […] For growth assays with inhibitors, n=3 for each concentration with two independent experiments.

RL95-2 = experiment: Soft agar growth assay (Alamar Blue); settings: ER-alpha positive, 100 nM cortistatin A
Method: (§3) For the 62 cell lines 96 well suspension cell culture plates were prepared. 100 μL of the soft agar bottom layer (0.6% final concentration in complete medium) was poured and left to solidify. 50 μL of the soft agar top layer (0.4% final concentration) containing the corresponding cells and cell number were then added on top, solidified and incubated at 37° C., 10% CO2. After the soft agar had solidified, the test items were added at indicated final concentrations into the inner wells of the plate. Subsequently, the assay was incubated in cell culture incubators for 8 to 14 days. Finally, the assay was developed using Alamar Blue and upon 1-5 h of incubation at 37° C. fluorescence intensity was determined (excitation: 560 nm; emission: 590 nm). As low control, cells were treated with 1E-05M Staurosporine (6fold values). As high control, cells were treated with 0.1% DMSO (solvent control, 6 fold values).
(§4) Raw data were converted into percent soft agar growth relative to high controls (solvent 0.1% DMSO) and low controls (1E-05M Staurosporine), which were set to 100% and 0%, respectively.

MM1.S = experiment: Cellular proliferation assay (CellTiter-Glo); settings: Homo sapiens
Method: as §1

Jurkat = experiment: Cellular proliferation assay (CellTiter-Glo); settings: Homo sapiens
Method: as §2

[1] = system: disseminated MV4;11-mCLP leukemia; experiment: MV4;11 xenograft model in NSG mice; format: in vivo, mouse
Method: The MV4;11 xenograft model was performed as previously described (Etchin, J. et al. Antileukemic activity of nuclear export inhibitors that spare normal hematopoietic cells. Leukemia 27, 66-74 (2013)). Two-million MV4; 11-mCLP cells were injected into the tail vein of 7-week-old female non-obese diabetic-severe combined immuno-deficient (NOD-SCID)Il2rg^−/− (NSG) mice (The Jackson Laboratory) and tumour burden was assessed by bioluminescence imaging (BLI) using an IVIS Spectrum system (Caliper Life Sciences). […] After 30 days, blood counts were obtained (Hemavet 950 F, Drew Scientific) and spleen, femur and peripheral blood cells were collected and analysed by flow cytometry (LSR Fortessa, BD Biosciences) from three mice per group, having the highest, lowest and median BLI value. […] Survival was measured as the time from therapy initiation until moribund state. […]
The MV4;11 xenograft model was performed as previously described (Etchin, J. et al. Antileukemic activity of nuclear export inhibitors that spare normal hematopoietic cells. Leukemia 27, 66-74 (2013)). Two-million MV4;11-mCLP cells were injected into the tail vein of 7-week-old female non-obese diabetic-severe combined immuno-deficient (NOD-SCID)Il2rg-^−/− (NSG) mice (The Jackson Laboratory) and tumour burden was assessed by bioluminescence imaging (BLI) using an IVIS Spectrum system (Caliper Life Sciences). […]

ARH-77 = experiment: Cellular proliferation assay (CellTiter-Glo); settings: Homo sapiens
Method: as §2

MOLM-16 = experiment: Cellular proliferation assay (CellTiter-Glo); settings: Homo sapiens
Method: as §2

SK-N-MC = experiment: Soft agar growth assay (Alamar Blue); settings: Neuroblastoma, EWS-FLI1, 100 nM cortistatin A
Method: as §3, §4

MEG-01 = experiment: Cellular proliferation assay (CellTiter-Glo); settings: Homo sapiens
Method: as §2

ALL-SIL = experiment: Cellular proliferation assay (CellTiter-Glo); settings: Homo sapiens
Method: as §2

SET-2 cells = experiment: SET-2 differentiation assay (CD41/CD61 flow cytometry); settings: 50 nM cortistatin A, 3 days; FIG. 3
Method: Cell pellets were collected at 4° C., washed three times with cold PBS, and stained with anti-CD61-PE (ab91128) or anti-CD41-PerCP (ab134373) and analyzed by flow cytometry.

HEL = experiment: Cellular proliferation assay (CellTiter-Glo); settings: Homo sapiens
Method: as §2

ME-1 = experiment: Cellular proliferation assay (CellTiter-Glo); settings: Homo sapiens, ME-1, 240 h
Method: as §2

NCI-N87 = experiment: Soft agar growth assay (Alamar Blue); settings: Gastric cancer, HER2 overexpression, 100 nM cortistatin A
Method: as §3, §4

Kasumi-1 = experiment: Cellular proliferation assay (CellTiter-Glo); settings: Homo sapiens
Method: as §2

CMK-86 = experiment: Cellular proliferation assay (CellTiter-Glo); settings: Homo sapiens
Method: as §2

## CN(C)[C@H]1C[C@@]23CC[C@@]4(O2)C(=CC[C@]2(C)[C@@H](c5ccc6ccncc6c5)CC[C@H]24)C=C3[C@@H](O)[C@@H]1O [Cortistatin A, cortistatin A]
HCT116
  GI50: > 1000 nM
MKPL-1
  GI50: 1 nM
RL95-2
  % growth rel. to vehicle: 16%
MM1.S
  GI50: 5 nM
Jurkat
  GI50: 155 nM
[1]; MV4;11 AML mice, Day 30, FIG. 10
  leukemia cells in the lungs (haematoxylin and eosin staining): fewer leukemia cells in the lungs
[1]; female NSG mice, once daily IP for 15 days, measured 37 days after injection of cells, FIG. 6
  spleen weight: prevents spleen weight increase
ARH-77
  GI50: 16 nM
MOLM-16; MOLM16
  GI50: < 1 nM
MOLM-16; MOLM16, 240 h
  GI50: ≤ 1 nM
SK-N-MC
  % growth rel. to vehicle: 45%
MEG-01; MEG-01
  GI50: 9 nM
MEG-01; MEG-01, 240 h
  GI50: 9 nM
ALL-SIL
  GI50: 2 nM
SET-2 cells
  differentiation of SET-2 cells (percent of cells with megakaryocytic markers CD41 and CD61): induces differentiation of SET-2 cells
HEL
  GI50: > 1000 nM
HEL; 240 h
  GI50: > 1000 nM
ME-1
  GI50: 1 nM
NCI-N87
  % growth rel. to vehicle: 26%
Kasumi-1
  GI50: 95 nM
CMK-86; CMK-86
  GI50: 8 nM
CMK-86; CMK-86, 240 h
  GI50: 8 nM
